Source: the CheMixHub ionic liquid set
± gives the uncertainty stated by the source.

Assay: xn = mol fraction of the nth substance listed
Details: for electrical conductivity: x1 = 0.2884, x2 = 0.6258

CC(C)C[P+](C)(CC(C)C)CC(C)C.Cc1ccc(S(=O)(=O)[O-])cc1 + O
Details	viscosity [mPa·s]
293.15 K, 101 kPa, x2 = 0.7599	68 ± 5
293.15 K, 101 kPa, x2 = 0.8779	23 ± 1.7
293.15 K, 101 kPa, x2 = 0.9283	11.6 ± 1.1
293.15 K, 101 kPa, x2 = 0.9729	4 ± 0.4
298.15 K, 100 kPa, x1 = 0.003319	1.115 ± 0.023
298.15 K, 100 kPa, x1 = 0.00854	1.475 ± 0.031
308.15 K, 100 kPa, x1 = 0.009239	1.175 ± 0.025
333.15 K, 100 kPa, x1 = 0.9022	221 ± 16
353.15 K, 100 kPa, x1 = 0.9022	79 ± 5

CCO + CCOP(=O)([O-])OCC.CC[n+]1ccn(C)c1
Details	viscosity [mPa·s]
318.15 K, 100 kPa, x2 = 0	0.75 ± 0.05

CCCC[N+](CCCC)(CCCC)CCCC.O=[N+]([O-])[O-] + CCCCCCCCCCCC[N+](C)(C)C.[Br-] + O
viscosity [mPa·s], 100 kPa
Details	x2 = 5.421e-05, x1 = 0.0001802	x2 = 0.0001084, x1 = 0.0001801	x2 = 0.0001626, x1 = 0.0001801	x2 = 0.0002168, x1 = 0.0001801	x2 = 0.000271, x1 = 0.0001801	x2 = 0.0003252, x1 = 0.0001801	x2 = 0.0003794, x1 = 0.0001801	x2 = 0.0004335, x1 = 0.0001801	x2 = 0.0004877, x1 = 0.0001801	x2 = 0.0005418, x1 = 0.0001801
293.15 K	1.042 ± 0.029	1.043 ± 0.029	1.045 ± 0.029	1.047 ± 0.029	1.048 ± 0.029	1.048 ± 0.029	1.049 ± 0.029	1.049 ± 0.029	1.049 ± 0.029	1.049 ± 0.029
298.15 K	0.924 ± 0.029	0.926 ± 0.029	0.927 ± 0.029	0.928 ± 0.029	0.928 ± 0.029	0.929 ± 0.029	0.929 ± 0.029	0.929 ± 0.029	0.93 ± 0.029	0.93 ± 0.029
303.15 K	0.821 ± 0.028	0.822 ± 0.028	0.822 ± 0.028	0.824 ± 0.028	0.825 ± 0.028	0.825 ± 0.028	0.825 ± 0.028	0.825 ± 0.028	0.826 ± 0.028	0.826 ± 0.028
308.15 K	0.731 ± 0.028	0.732 ± 0.028	0.735 ± 0.028	0.735 ± 0.028	0.735 ± 0.028	0.736 ± 0.028	0.736 ± 0.028	0.736 ± 0.028	0.737 ± 0.028	0.737 ± 0.028
313.15 K	0.664 ± 0.028	0.664 ± 0.027	0.665 ± 0.027	0.665 ± 0.027	0.665 ± 0.027	0.666 ± 0.027	0.666 ± 0.027	0.666 ± 0.027	0.666 ± 0.027	0.667 ± 0.028
318.15 K	0.617 ± 0.027	0.617 ± 0.027	0.617 ± 0.027	0.618 ± 0.027	0.618 ± 0.027	0.618 ± 0.027	0.618 ± 0.027	0.618 ± 0.027	0.619 ± 0.027	0.619 ± 0.027

CCC[N+]1(C)CCCCC1.[Br-] + O + CC[N+]1(C)CCCCC1.[Br-]
Details	viscosity [mPa·s]
293.15 K, 101 kPa, x3 = 0.00299, x1 = 0.005976	1.575 ± 0.019

CC[S+](CC)CCOCC[S+](CC)CC.N#C[N-]C#N.N#C[N-]C#N + CC[n+]1ccn(C)c1.N#C[N-]C#N + O=S(=O)([N-]S(=O)(=O)C(F)(F)F)C(F)(F)F.[Li+]
100 kPa
Details	electrical conductivity [S/m]
298 K	0.519 ± 0.021
303 K	0.632 ± 0.025
313 K	0.863 ± 0.035
323 K	1.17 ± 0.047
333 K	1.54 ± 0.062
343 K	1.95 ± 0.078

CCO + CC[n+]1ccn(CCOC)c1.O=S(=O)([N-]S(=O)(=O)C(F)(F)F)C(F)(F)F
100 kPa, x2 = 0
Details	viscosity [mPa·s]
288.15 K	1.334 ± 0.014
293.15 K	1.202 ± 0.012
298.15 K	1.111 ± 0.011
303.15 K	1.003 ± 0.01
308.15 K	0.907 ± 0.009
313.15 K	0.83 ± 0.008
318.15 K	0.76 ± 0.008

CC[n+]1ccccc1.O=S(=O)([N-]S(=O)(=O)C(F)(F)F)C(F)(F)F + O
viscosity [mPa·s], 101 kPa
Details	298.15 K	323.15 K	343.15 K	353.15 K
x2 = 0.005125	–	17.8 ± 1.1	–	8.68 ± 0.53
x2 = 0.08693	34.1 ± 2.1	15.47 ± 0.94	9.7 ± 0.59	–
